In patent US20190255087A1, “ENCAPSULATION AND HIGH LOADING EFFICIENCY OF PHOSPHORYLATED DRUG AND IMAGING AGENTS IN NANOPARTICLES” (THE PENN STATE RESEARCH FOUNDATION, priority 2016, published 2019):
“And” between values parts separate entries of the source, which are not always exact repeats. Equal entries are not always repeated.

Key:
[1] = Encapsulated drug concentration and encapsulation efficiency (EE) in Cit-X-CPSNPs by LC-MS/MS; format: physicochemical; conditions: for Drug concentration (M) / EE (mol %): citrate-functionalized CPSNPs, weighted mean ± 95% confidence interval, n = 4-6 replicates
Protocol: The encapsulation efficiencies (EE) in Table 1 was experimentally determined by LC-MS/MS for 5FU, 5FU:ATP, FUdR, FdUMP, Gem, and GemMP, as drawn in FIG. 2 1. The EE is defined by the following equation,
(§1) where mi was the total drug content in moles and mf was the moles encapsulated as assessed by LC-MS/MS. Particles were diluted in 10% methanol with 0.1% formic acid and 5-CU was spiked in as an internal standard. Chromatography was done on a 2.1 mm×10 cm HSS T3 or C18 CSH column (Waters) on a Waters I-class FTN chromatography system with the column temperature at 40° C. Mobile phase A was water with 5 mM ammonium acetate and B was methanol. The flow rate was 0.5 mL/min and the chromatography consisted of holding at 7.5% B for 1 min, increasing to 95% B over 0.5 min, holding at 95% B for 0.5 min before equilibration to starting conditions. Eluate was analyzed by an inline Waters TQ-S mass spectrometer. The capillary was set at 1.0 kV, source temperature at 150° C., desolvation temperature at 600° C., cone gas at 150 L/hr, and desolvation gas flow at 1200 L/hr. Multiple reaction monitoring (MRM) was used to detect 5-CU, FdUMP, Gem, and GemMP. The MRM transition used for 5-CU was 145 >42 with the collision energy set at 12. The MRM transition used for drug agents was 325 >195 with the collision energy set at 12. Drug concentrations were determined using TargetLynx version 4.1 (Waters) using an external calibration curve with 1/x weighting.
as §1, with “Particles” for “where mi was the total drug content in moles and mf was the moles encapsulated as assessed by LC-MS/MS. Particles”, “5-CU” for “5-CU, FdUMP, Gem,”, “FdUMP.” for “GemMP.”, “FdUMP” for “drug agents”, “FdUMP” for “Drug”

[2] = target: T1, thymidylate synthase (TS) (Homo sapiens, UniProt P04818); assay: Thymidylate synthase immunoblotting, PANC-1 cells; format: cell-based; parameters: endogenous in cells; host or cells: PANC-1 (ATCC); conditions: 250 μM free FdUMP
T1 sequence (P04818 2-313 limits assumed): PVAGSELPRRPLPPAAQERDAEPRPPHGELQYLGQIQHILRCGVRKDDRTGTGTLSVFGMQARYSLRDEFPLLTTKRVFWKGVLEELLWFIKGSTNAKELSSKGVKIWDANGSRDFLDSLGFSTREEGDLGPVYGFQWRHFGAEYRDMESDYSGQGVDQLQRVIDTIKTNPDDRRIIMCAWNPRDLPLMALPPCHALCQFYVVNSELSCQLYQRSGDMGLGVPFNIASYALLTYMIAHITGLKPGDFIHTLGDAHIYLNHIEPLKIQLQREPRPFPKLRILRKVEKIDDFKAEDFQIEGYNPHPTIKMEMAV
Protocol: Thus in the presence of folate, TS dimers and FdUMP create an irreversibly inactivated enzyme:drug complex.^59 Experimentally, the inhibition of TS activity by FdUMP can be detected by the presence of this stable ternary complex.
PANC-1 cells were incubated for 24 hours in the following treatment groups: NT, vehicle, 250 μM free FdUMP, 200 nM FdUMP-CPSNPs, and Ghost-CPSNPs in PBS. Lysates were collected by aspirating the media, washing with 1×PBS, and adding RIPA buffer containing Complete Mini protease cocktail (Roche). Lysates were spun to remove debris and the supernatants frozen at −80° C. Protein concentration was determined by micro BCA protein assay (Thermo Scientific) and 20 μg of protein separated by gel electrophoresis. After transfer to HyBond ECL and blocking for 1 hr in 5% BSA, blots were probed overnight with anti-TS antibody (1:1000, D5B3, #9045 Cell Signaling). Blots were washed, probed with anti-rabbit-HRP secondary antibody for 1 hour and developed with Pierce Pico (Thermo Scientific). Quantitation of scanned blots was done using Image J software.
PANC-1 cells were incubated for 24 hours in the following treatment groups: NT, vehicle, 250 μM free FdUMP, 200 nM FdUMP-CPSNPs, and ghost-CPSNPs in PBS. […] Lysates were spun to remove debris and the supernatants frozen at −80° C. […] Quantitation of scanned blots was done using Image J software.

PANC-1 [3] = assay: Cell cycle analysis by propidium iodide flow cytometry; format: cell-based, human; conditions: PANC-1, 72 hr, 250 μM
Protocol: For determination of nuclear DNA content, PANC-1 treatments included NT, vehicle (1× sterile calcium- and magnesium-free PBS), 250 μM free FdUMP, Ghost-CPSNPs, or 200 nM FdUMP-CPSNPs. After 72 hours of treatment, cells were fixed in 75% ethanol overnight. Immediately prior to analysis, cells were treated with 1 μg/mL of RNase A and stained with 50 μg/mL of propidium iodide, which is taken up by double-stranded DNA. DNA content was determined using a FACSCalibur flow cytometer (BD Biosciences), and data were analyzed with Cellquest (Verity Software).
For determination of nuclear DNA content, PANC-1 treatments included NT, vehicle (1× sterile calcium- and magnesium-free PBS), 250 μM free FdUMP, ghost-CPSNPs, or 200 nM FdUMP-CPSNPs. After 72 hours of treatment, cells were fixed in 75% ethanol overnight. Immediately prior to analysis, cells were treated with 1 μg/mL of RNase A and stained with 50 µg/mL of propidium iodide, which is taken up by double-stranded DNA. DNA content was determined using a FACSCalibur flow cytometer (BD Biosciences), and data were analyzed with Cellquest (Verity Software).

PANC-1 [4] = assay: Cell proliferation assay (alamarBlue); format: cell-based, human; conditions: for EC50 of free drug, PANC-1: in words
Source text: (§2) CPSNPs in 70/30 ethanol/water suspensions were completely dried under pre-purified argon and reconstituted in sterile 1×PBS without calcium or magnesium.
(§3) BxPC-3 and Panc-1 were obtained from ATCC. RLT-PSC pancreatic stellate cells were a gift from Professor Ralf Jesenofsky, University of Heidelberg, and H6c7, immortalized human pancreatic ductal epithelial cells, were a gift of Dr. Ming-Sound Tsao, University of Toronto. H6c7 cells have a near normal genotype with wild type p53 and KRAS genes. Cells were cultured in the appropriate media as follows: Dulbecco's modified Eagle medium with 10% FBS for PANC-1 and RLT-PSC, RPMI 1640 with 10% FBS for BxPC-3, and complete keratinocyte basal medium (KBM), containing growth factors, hormones and bovine pituitary extract for H6c7 cells (Invitrogen).
(§4) PANC-1, BxPC-3, RLT-PSC and H6c7 cells were seeded into 96 well plates at 5,000 cells per well. At 24 hours post seeding, media only/no treatment (NT), vehicle (lx sterile PBS without calcium and magnesium), 5FU and FdUMP treatments were initiated and viable cells determinations were made at 24, 48 or 72 hr post-treatment using an alamarBlue® assay (Life Technologies). Data were normalized to vehicle treatments for all time points.
(§5) CPSNPs in 70/30 ethanol/water suspensions were completely dried under pre-purified argon and reconstituted in sterile 1×PBS without calcium or magnesium. PANC-1, BxPC-3, RLT-PSC and H6c7 cells were seeded into 96 well plates at 5,000 cells per well. At 24 hours post seeding, media only/no treatment (NT), vehicle (1× sterile PBS without calcium and magnesium), 5FU and FdUMP treatments were initiated and viable cells determinations were made at 24, 48 or 72 hr post-treatment using an alamarBlue® assay (Life Technologies). Data were normalized to vehicle treatments for all time points.
(§6) Results were expressed as means±standard error. Student t-tests were used to evaluate statistical significance with a p<0.05 considered to be significant. To calculate EC50±95% CI, nonlinear regression analysis was performed to generate the curve of best fit for the data according to a Sigmoidal regression using a 4-parameter logistic curve calibration [Y=Yo+(a/(1+((X/Xo)^b))] in SigmaPlot 12 (Systat, Inc.).

BxPC-3 = assay: Cell proliferation assay (alamarBlue); format: cell-based, human; conditions: for Decrease of BxPC-3 proliferation: 200 μM free drug; for EC50 of free drug, BxPC-3: in words
Source text: as §2, §3, §4, §5, §6

[5] = target: T1, thymidylate synthase (TS); assay: Thymidylate synthase immunoblotting, BxPC-3 cells; format: cell-based; parameters: PANC-1 cells were incubated for 24 hours in the following treatment groups; endogenous in cells; conditions: 250 μM free FdUMP
[6] = in vivo; cited from earlier work

Compound | EE, range over replicated formulations ([1]; Cit-X-CPSNPs) | Drug concentration (M) [1] | EE (mol %) [1] | TS in inactive ternary complex (inhibition), PANC-1 [2] | Encapsulated drug concentration, range over replicated formulations ([1]; Cit-X-CPSNPs) | % Cells in G2/M (PANC-1 [3]) | % Cells in G1/G0 (PANC-1 [3]; listed as free FdUMP) | % Cells in S (PANC-1 [3]; listed as free FdUMP) | Reduction of PANC-1 proliferation (PANC-1 [4]; 200 μM free drug) | EC50 of free drug, PANC-1 (PANC-1 [4]) | Decrease of BxPC-3 proliferation (BxPC-3) | EC50 of free drug, BxPC-3 (BxPC-3) | TS in inactive ternary complex (inhibition), BxPC-3 [5] | Fraction of 5FU catabolized to 5-fluorodihydrouracil by DPD [6] | Fraction of 5FU pro-drug activated to FdUMP [6]
O=c1[nH]c(=O)n([C@H]2C[C@H](O)[C@@H](CO)O2)cc1F [FUdR, 5-fluoro-2′-deoxyuridine] | < 0.01 mol % | 2.8 (±1.2)×10^−8 M | < 0.01 mol % |  |  |  |  |  |  |  |  |  |  |  | 
O=c1[nH]c(=O)n([C@H]2C[C@H](O)[C@@H](COP(=O)(O)O)O2)cc1F [FdUMP, 5-fluoro-2′-deoxyuridine 5′-monophosphate] | 7-97 mol % | 3.0 (±1.4)×10^−4 M | 41 (±16) mol % | 80% | 60 to 830 µM | 23.5 ± 6.3% | 20% and 20.3 ± 3.0% | 56% and 56.3 ± 10.3% | twice as effective as free 5FU | low uM | equally effective | low uM | 90% |  | 
O=c1[nH]cc(F)c(=O)[nH]1 [Formulation 5FU, 5-fluorouracil] |  | 4.1 (±1.8)×10^−7 M | 0.11 (±0.04) mol % |  |  |  |  |  |  | low uM | equally effective | low uM |  | more than 80% | less than 20%
Nc1ccn([C@@H]2O[C@H](CO)[C@@H](O)C2(F)F)c(=O)n1 [Gem, 2′,2′-difluorodeoxycytidine] |  | 1.9 (±0.6)×10^−9 M | < 0.01 mol % |  |  |  |  |  |  |  |  |  |  |  | 
gemcitabine monophosphate [GemMP] | 15-30 mol % | 2.3 (±0.4)×10^−5 M | 22 (±6) mol % |  |  |  |  |  |  | nM range |  | nM range |  |  | 
